Reference: PubChem BioAssay AID2060489 (Molecular Pharmacology Branch, DTP, NCI, 2025)

System: 922993-354-T-J3-PDC complex spheroids, viability
Experiment: Anticancer human tumor 922993-354-T-J3-PDC patient-derived endometrial carcinoma cell line growth inhibition [GQUAD]
Conditions: for IC50: curve of first compound; for viability, T/C: stronger effect = lower value
Method in brief: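 Viability of tumor cells grown as complex spheroids with endothelial and stromal cells, exposed to drug combinations. Top concentration at or near clinical Cmax (else 10 microM), diluted in half-log increments.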
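Also: spheroids exposed to compounds for seven days.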
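For viability, T/C in this document: 100% = DMSO vehicle control viability.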

Question: With `COc1ncnc(C2CC2)c1-c1ncc2cnn(Cc3ccc(-c4nc(C(F)(F)F)cn4C(C)C)cc3)c2n1` + Cc1cnc(CNC(=O)c2c(=O)c3ccc(N4CCCN(C)CC4)nc3n3c2sc2ccccc23)cn1 as the molecule, how does the IC50 (second compound 0.0316 µM) read?
Answer: > 10 µM

Question: What about the IC50 (second compound 0.1 µM) of the same molecule?
Answer: > 10 µM

Question: What about the IC50 (second compound 0.316 µM) of the same molecule?
Answer: < 0.0316 µM

Question: What about the IC50 (second compound 1 µM) of the same molecule?
Answer: < 0.0316 µM

Question: And the IC50 (second compound 3.16 µM)?
Answer: < 0.0316 µM

Question: And the IC50 (second compound 10 µM)?
Answer: 3.23 µM

Question: What about the viability, T/C (second compound 0.0316 µM, first compound 0.0316 µM) of the same molecule?
Answer: 98.1%

Question: And the viability, T/C (second compound 0.0316 µM, first compound 0.1 µM)?
Answer: 72.7%

Question: What about the viability, T/C (second compound 0.0316 µM, first compound 0.316 µM) of the same molecule?
Answer: 80.5%

Question: And the viability, T/C (second compound 0.0316 µM, first compound 1 µM)?
Answer: 48.3%

Question: What about the viability, T/C (second compound 0.0316 µM, first compound 3.16 µM) of the same molecule?
Answer: 59%

Question: What about the viability, T/C (second compound 0.0316 µM, first compound 10 µM) of the same molecule?
Answer: 63.4%

Question: What about the viability, T/C (second compound 0.1 µM, first compound 0.0316 µM) of the same molecule?
Answer: 67.8%

Question: And the viability, T/C (second compound 0.1 µM, first compound 0.1 µM)?
Answer: 44.2%

Question: What about the viability, T/C (second compound 0.1 µM, first compound 0.316 µM) of the same molecule?
Answer: 45.6%

Question: And the viability, T/C (second compound 0.1 µM, first compound 1 µM)?
Answer: 44.3%

Question: And the viability, T/C (second compound 0.1 µM, first compound 3.16 µM)?
Answer: 51.4%

Question: What about the viability, T/C (second compound 0.1 µM, first compound 10 µM) of the same molecule?
Answer: 70.4%

Question: What about the viability, T/C (second compound 0.316 µM, first compound 0.0316 µM) of the same molecule?
Answer: 41%

Question: What about the viability, T/C (second compound 0.316 µM, first compound 0.1 µM) of the same molecule?
Answer: 34.5%

Question: What about the viability, T/C (second compound 0.316 µM, first compound 0.316 µM) of the same molecule?
Answer: 41.8%

Question: What about the viability, T/C (second compound 0.316 µM, first compound 1 µM) of the same molecule?
Answer: 49.3%

Question: And the viability, T/C (second compound 0.316 µM, first compound 3.16 µM)?
Answer: 51.3%

Question: What about the viability, T/C (second compound 0.316 µM, first compound 10 µM) of the same molecule?
Answer: 52.7%

Question: And the viability, T/C (second compound 1 µM, first compound 0.0316 µM)?
Answer: 44.5%

Question: What about the viability, T/C (second compound 1 µM, first compound 0.1 µM) of the same molecule?
Answer: 44.6%

Question: And the viability, T/C (second compound 1 µM, first compound 0.316 µM)?
Answer: 41.6%

Question: What about the viability, T/C (second compound 1 µM, first compound 1 µM) of the same molecule?
Answer: 46.3%

Question: What about the viability, T/C (second compound 1 µM, first compound 3.16 µM) of the same molecule?
Answer: 54.9%

Question: What about the viability, T/C (second compound 1 µM, first compound 10 µM) of the same molecule?
Answer: 67.1%

Question: And the viability, T/C (second compound 3.16 µM, first compound 0.0316 µM)?
Answer: 40.9%

Question: What about the viability, T/C (second compound 3.16 µM, first compound 0.1 µM) of the same molecule?
Answer: 41.7%

Question: And the viability, T/C (second compound 3.16 µM, first compound 0.316 µM)?
Answer: 50.3%

Question: And the viability, T/C (second compound 3.16 µM, first compound 1 µM)?
Answer: 49.2%

Question: What about the viability, T/C (second compound 3.16 µM, first compound 3.16 µM) of the same molecule?
Answer: 43%

Question: And the viability, T/C (second compound 3.16 µM, first compound 10 µM)?
Answer: 55.7%

Question: What about the viability, T/C (second compound 10 µM, first compound 0.0316 µM) of the same molecule?
Answer: 48.6%

Question: What about the viability, T/C (second compound 10 µM, first compound 0.1 µM) of the same molecule?
Answer: 47.7%

Question: And the viability, T/C (second compound 10 µM, first compound 0.316 µM)?
Answer: 52.6%

Question: What about the viability, T/C (second compound 10 µM, first compound 1 µM) of the same molecule?
Answer: 49%

Question: What about the viability, T/C (second compound 10 µM, first compound 3.16 µM) of the same molecule?
Answer: 53.3%

Question: And the viability, T/C (second compound 10 µM, first compound 10 µM)?
Answer: 40.1%
